The test relates to RNA3WJ_0.0.0_5IB_3FAM (3WJ_0.0.0_5IB_3FAM RNA construct). Description: Thermal shift binding assay. Particulars: for Melt. Temp. with cmpd / Shift melt. Temp.: RNA sequence 3WJ_0.0.0_5IB_FAM; for Melt. Temp. with cmpd: melting temperature in presence of compound; for Shift melt. Temp.: with cmpd minus without cmpd; for Temp. Shift: 1 μM RNA, 8 μM compound, 10 mM CacoK pH 7.2, 30 mM NaCl. From the text:
Purpose: Test binding of compounds for RNA three way junction (for example, a construct of 38 nt). Thermal shift assay based on established fluorescence quenching assay utilizing FAM as fluorescence tag and Iowa Black as quencher. Tags were attached at the 3′ and 5′ end, respectively. Stable formation of 3WJ upon compound binding would lead to quenching of the FAM fluorescence due to close proximity of the Iowa Black tag. Thermal unfolding leads to increase of fluorescence emission. Assay readout: FAM (465-510 nm) Thermal Shift.
Assay sample buffer used: 10 mM CacoK pH 7.2, 30 mM NaCl. Buffer preparation in Dnase/Rnase Free distilled water (Gibco Life Technologies).
Dilute the RNA 1:10 (final 10 μM) in Assay Buffer.
Heat up the diluted RNA up to 90° C. for 5 min (sealed Eppendorf Tube).
Cool down the RNA probe slowly to RT.
Dilute the compounds to 800 μM in DMSO (Assay: 8 μM). […]
Pipet 20 μL Sample Solution into Roche, Light Cycler480 Multiwell Plate96, white, REF 04729692001.
Measure the 96 plate with the LightCycler480 (Channel: 480/510 nm; Temperature: 41-91° C.).
Analyse measurement-data with the MeltingCurveGenotyping Mode.
Settings: Acquisition mode: continuous; Ramp rate: 0.1° C./sec; Acquisition: 6° C.
Curves are fitted with raw and normalized data.
Melting curves analysis show melting temperature (Tm) of ˜51° C. Range of RNA concentrations was tested and assay window was determined (conc. range of 0.5-1 μM yields best results). The choice of buffer also affected the Tm. RNA constructs were tested under different buffer conditions (especially in presence of salt) in the thermal shift assay. […] CacoK with 30 mM salt at 1 μM RNA conc. was used to assess compound effects on 3WJ stability. […] These conditions were used for screening test compounds.

Data on 19 compounds can be found in US20220402883A1, “COMPOUNDS AND METHODS FOR MODULATING RNA FUNCTION” (Arrakis Therapeutics, Inc., priority 2016, published 2022).

Counter-ions that a name gives are not always drawn.

`CN(CCOCCN(C)C(=O)[C@@H]1C[C@H](N=[N+]=[N-])CN1C(=O)c1ccc2c(=O)oc(=O)[nH]c2c1)C(=O)CCC12c3cc(NC(=O)CCCCCCCN)ccc3C(c3ccc(NC(=O)CCCCCCCN)cc31)c1ccc(NC(=O)CCCCCCCN)cc12` [ARK000034, N,N′,N″-(9-(3-((2-(2-((2S,4S)-4-azido-1-(2,4-dioxo-1,4-dihydro-2H-benzo[d][1,3]oxazine-7-carbonyl)-N-methylpyrrolidine-2-carboxamido)ethoxy)ethyl)(methyl)amino)-3-oxopropyl)-9,10-dihydro-9,10-[1,2]benzenoanthracene-2,7,15-triyl)tris(8-aminooctanamide)]: the “Melt. Temp. with cmpd” value is 60.2 °C and the “Shift melt. Temp.” value is “+0.3 °C”.
In the case of `NCCCC[C@@H](N)C(=O)Nc1ccc2c(c1)C1c3cc(NC(=O)[C@H](N)CCCCN)ccc3C2c2ccc(NC(=O)[C@H](N)CCCCN)cc21` [ARK000016, (2R,2′R,2″R)—N,N′,N″-(9,10-dihydro-9,10-[1,2]benzenoanthracene-2,7,15-triyl)tris(2,6-diaminohexanamide)], the “Melt. Temp. with cmpd” value is 83.8 °C and the “Shift melt. Temp.” value is “+21.3 °C”.
For `N[C@H](Cc1c[nH]cn1)C(=O)Nc1ccc2c(c1)C1c3cc(NC(=O)[C@H](N)Cc4c[nH]cn4)ccc3C2c2ccc(NC(=O)[C@H](N)Cc3cnc[nH]3)cc21` [ARK000018, (2R,2′R,2″R)—N,N′,N″-(9,10-dihydro-9,10-[1,2]benzenoanthracene-2,7,15-triyl)tris(2-amino-3-(1H-imidazol-4-yl)propanamide) hydrochloride], the “Melt. Temp. with cmpd” value was 60.8 °C and the “Shift melt. Temp.” value was “+0.2 °C”.
For `CN(CCOCCOCCOCCNC(=O)CCC12c3cc(NC(=O)CCCCCCCN)ccc3C(c3ccc(NC(=O)CCCCCCCN)cc31)c1ccc(NC(=O)CCCCCCCN)cc12)C(=O)[C@@H]1C[C@H](N=[N+]=[N-])CN1C(=O)COc1ccc2c(=O)oc(=O)n(C)c2c1` [ARK000026, N,N′,N″-(9-(1-((2S,4S)-4-azido-1-(2-((1-methyl-2,4-dioxo-1,4-dihydro-2H-benzo[d][1,3]oxazin-7-yl)oxy)acetyl)pyrrolidin-2-yl)-2,14-dimethyl-1,15-dioxo-5,8,11-trioxa-2,14-diazaheptadecan-17-yl)-9,10-dihydro-9,10-[1,2]benzenoanthracene-2,7,15-triyl)tris(8-aminooctanamide)], in that order: 60.9 °C and −1.2 °C.
In the case of `O=C(O)CCC12C3=C(CCNC3)C(c3ccccc31)c1ccccc12` [ARK000019], the “Melt. Temp. with cmpd” value worked out at 60.0 °C and the “Shift melt. Temp.” value was −0.3 °C.
For `CCOC(=O)c1ccccc1NC(=O)N1CCCN(Cc2csc(C)n2)CC1` [ARK000021], in that order: 40.5 °C and −19.0 °C.
For `CN(CCOCCOCCNC(=O)CCC12c3cc(NC(=O)CCCCCCCN)ccc3C(c3ccc(NC(=O)CCCCCCCN)cc31)c1ccc(NC(=O)CCCCCCCN)cc12)C(=O)[C@@H]1C[C@H](N=[N+]=[N-])CN1C(=O)COc1ccc2c(=O)oc(=O)n(C)c2c1` [ARK000025, N,N′,N″-(9-(1-((2S,4S)-4-azido-1-(2-((1-methyl-2,4-dioxo-1,4-dihydro-2H-benzo[d][1,3]oxazin-7-yl)oxy)acetyl)pyrrolidin-2-yl)-2,11-dimethyl-1,12-dioxo-5,8-dioxa-2,11-diazatetradecan-14-yl)-9,10-dihydro-9,10-[1,2]benzenoanthracene-2,7,15-triyl)tris(8-aminooctanamide)], in that order: 50.4 °C and −10.2 °C.
For `CN(c1ccc(-c2ccc(-c3cn[nH]c3)cc2O)nn1)C1CC(C)(C)NC(C)(C)C1` [ARK000011], in that order: 60.3 °C and −1.4 °C.
On to `CC1(C)CC(Oc2ccc(-c3ccc(-c4cn[nH]c4)cc3O)nn2)CC(C)(C)N1` [ARK000010], for which the “Melt. Temp. with cmpd” value stood at 61.4 °C and the “Shift melt. Temp.” value was −0.2 °C.
For `C#CCCCC(=O)NC[C@H]1O[C@H](O[C@H]2[C@H](O)[C@@H](O[C@H]3O[C@H](CN=[N+]=[N-])[C@@H](O)[C@H](N)[C@H]3O)[C@H](N)C[C@@H]2N)[C@H](O)[C@@H](O)[C@@H]1O` [ARK000009], in that order: 62.9 °C and “+0.6 °C”.
For `CN(CCOCCN(C)C(=O)[C@@H]1C[C@H](N=[N+]=[N-])CN1C(=O)CCc1ccc(S(=O)(=O)F)cc1)C(=O)CCC12c3cc(NC(=O)CCCCCCCN)ccc3C(c3ccc(NC(=O)CCCCCCCN)cc31)c1ccc(NC(=O)CCCCCCCN)cc12` [ARK000027], the “Melt. Temp. with cmpd” value amounted to 83.4 °C and the “Shift melt. Temp.” value was “+23.7 °C”.
For `CN(CCOCCN(C)C(=O)[C@@H]1C[C@H](N=[N+]=[N-])CN1C(=O)c1ccc2c(=O)oc(=O)n(C)c2c1)C(=O)CCC12c3cc(NC(=O)CCCCCCCN)ccc3C(c3ccc(NC(=O)CCCCCCCN)cc31)c1ccc(NC(=O)CCCCCCCN)cc12` [ARK000033, N,N′,N″-(9-(3-((2-(2-((2S,4S)-4-azido-N-methyl-1-(1-methyl-2,4-dioxo-1,4-dihydro-2H-benzo[d][1,3]oxazine-7-carbonyl)pyrrolidine-2-carboxamido)ethoxy)ethyl)(methyl)amino)-3-oxopropyl)-9,10-dihydro-9,10-[1,2]benzenoanthracene-2,7,15-triyl)tris(8-aminooctanamide)], in that order: 62.4 °C and “+0.9 °C”.
For `CC(C)(C)OC(=O)NCCCC[C@H](NC(=O)OC(C)(C)C)C(=O)Nc1ccc2c(c1)C1(CCC(=O)NCCOCCOCCN)c3cc(NC(=O)[C@H](CCCCNC(=O)OC(C)(C)C)NC(=O)OC(C)(C)C)ccc3C2c2ccc(NC(=O)[C@H](CCCCNC(=O)OC(C)(C)C)NC(=O)OC(C)(C)C)cc21` [ARK000022], in that order: 60.2 °C and “+0.4 °C”.
As for `CN(CCOCCOCCOCCNC(=O)CCC12c3cc(NC(=O)CCCCCCCN)ccc3C(c3ccc(NC(=O)CCCCCCCN)cc31)c1ccc(NC(=O)CCCCCCCN)cc12)C(=O)[C@@H]1C[C@H](N=[N+]=[N-])CN1C(=O)c1ccc(S(=O)(=O)F)cc1` [ARK000032, 4-((2S,4S)-4-azido-2-(methyl(12-methyl-13-oxo-15-(2,7,15-tris(8-aminooctanamido)-9,10-[1,2]benzenoanthracen-9(10H)-yl)-3,6,9-trioxa-12-azapentadecyl)carbamoyl)pyrrolidine-1-carbonyl)benzenesulfonyl fluoride], the “Temp. Shift” value was “+15.0 °C”, the “Melt. Temp. with cmpd” value came out at 75.1 °C and the “Shift melt. Temp.” value was “+15.0 °C”.
For the compound `CN(CCOCCN(C)C(=O)[C@@H]1C[C@H](N=[N+]=[N-])CN1C(=O)c1ccc(S(=O)(=O)F)cc1)C(=O)CCC12c3cc(NC(=O)CCCCCCCN)ccc3C(c3ccc(NC(=O)CCCCCCCN)cc31)c1ccc(NC(=O)CCCCCCCN)cc12` [ARK000030], the “Melt. Temp. with cmpd” value was 64.8 °C and the “Shift melt. Temp.” value was “+4.8 °C”.
For `O=C(O)CCC12C3=C(CNCC3)C(c3ccccc31)c1ccccc12` [ARK000020], in that order: 60.2 °C and “+0.3 °C”.
Regarding `CN(CCOCCOCCNC(=O)CCC12c3cc(NC(=O)CCCCCCCN)ccc3C(c3ccc(NC(=O)CCCCCCCN)cc31)c1ccc(NC(=O)CCCCCCCN)cc12)C(=O)[C@@H]1C[C@H](N=[N+]=[N-])CN1C(=O)c1ccc(S(=O)(=O)F)cc1` [ARK000031, N,N′,N″-(9-(1-((2S,4S)-4-azido-1-(3-(4-(fluorosulfonyl)benzoyl)pyrrolidin-2-yl)-2,11-dimethyl-1,12-dioxo-5,8-dioxa-2,11-diazatetradecan-14-yl)-9,10-dihydro-9,10-[1,2]benzenoanthracene-2,7,15-triyl)tris(azanediyl))tris(8-aminooctanamide)], the “Temp. Shift” value is “+24.1 °C”, the “Melt. Temp. with cmpd” value amounted to 84.1 °C and the “Shift melt. Temp.” value is “+24.1 °C”.
Consider `CC(C)(C)OC(=O)NCCCC[C@H](NC(=O)OC(C)(C)C)C(=O)Nc1ccc2c(c1)C1(CCC(=O)NCCOCCOCCN)c3cc(NC(=O)[C@@H](CCCCNC(=O)OC(C)(C)C)NC(=O)OC(C)(C)C)ccc3C2c2ccc(NC(=O)[C@@H](CCCCNC(=O)OC(C)(C)C)NC(=O)OC(C)(C)C)cc21` [ARK000023], for which the “Melt. Temp. with cmpd” value was found to be 60.7 °C and the “Shift melt. Temp.” value was “+0.6 °C”.
For `N[C@@H](Cc1c[nH]cn1)C(=O)Nc1ccc2c(c1)C1c3cc(NC(=O)[C@@H](N)Cc4c[nH]cn4)ccc3C2c2ccc(NC(=O)[C@@H](N)Cc3cnc[nH]3)cc21` [ARK000017, (2S,2′S,2″S)—N,N′,N″-(9,10-dihydro-9,10-[1,2]benzenoanthracene-2,7,15-triyl)tris(2-amino-3-(1H-imidazol-4-yl)propanamide)hydrochloride], in that order: 60.6 °C and −0.6 °C.
